From patent US9034819B2, “Method of lowering cholesterol and triglycerides by administering exendins” (Amylin Pharmaceuticals, LLC, priority 2008, dated 2015)

Legend:
Format in all cases: in vivo, human
[1] = Body weight, 30 week study in patients with Type 2 diabetes; conditions: weight loss from baseline to week 30, SC, once weekly 2 mg or twice daily 10 μg
Method: (§1) The pharmacokinetics of a long-acting release formulation of exenatide was evaluated in a study in patients with Type 2 diabetes. The study population consisted of individuals with type 2 diabetes treated with a stable regimen of oral diabetes medications or managed with diet modification and exercise. […] The 30 week study compared a 10 μg formulation of exenatide administered twice daily (BTD) by subcutaneous (SC) injection and a 2 mg formulation of exenatide administered once weekly by subcutaneous (SC) injection. The study was also conducted, inter alia, to examine the effects of such administration on the individual's total cholesterol, LDL-cholesterol, HDL-cholesterol, triglyceride levels, hemoglobin A1C, fasting postprandial blood glucose, and weight. […]
(§2) Exenatide once weekly is a sustained-release formulation of exenatide (exendin-4) designed to provide exenatide release over a period ranging from 7 to 91 days. […] The vial containing the white to off-white dry powder (2.8 mg of exenatide once weekly) was stored frozen in a freezer with a recorded temperature at ≦−20±5° C. at the study site.
(§3) Patients were monitored about every four weeks for body weight, vital signs (including blood pressure, heart rate, respiratory rate, and temperature), urinalysis, and adverse events. […]

hemoglobin A1C = assay: Hemoglobin A1C by HPLC, 30 week study in patients with Type 2 diabetes; conditions: decrease from baseline to week 30; SC; once weekly 2 mg or twice daily 10 μg
Method: as §1, §2
Plasma exenatide was quantified by a validated Enzyme-Linked Immunosorbent Assay (ELISA) at Millipore (Billerica, Mass.). […] Glycosylated hemoglobin was quantitated by Quintiles Laboratories (Smyrna, Ga.) using high-performance liquid chromatography. […]

fasting triglycerides = assay: Fasting triglycerides, 30 week study in patients with Type 2 diabetes; conditions: decrease from baseline to week 30; SC; once weekly 2 mg or twice daily 10 μg
Method: as §1, §2, §3

[2] = test system: total cholesterol, LDL-cholesterol, HDL-cholesterol; assay: Total, LDL- and HDL-cholesterol, 30 week study in patients with Type 2 diabetes; conditions: SC
Method: (§4) The pharmacokinetics of a long-acting release formulation of exenatide was evaluated in a study in patients with Type 2 diabetes. The study population consisted of individuals with type 2 diabetes treated with a stable regimen of oral diabetes medications or managed with diet modification and exercise. […] The 30 week study compared a 10 μg formulation of exenatide administered twice daily (BTD) by subcutaneous (SC) injection and a 2 mg formulation of exenatide administered once weekly by subcutaneous (SC) injection. The study was also conducted, inter alia, to examine the effects of such administration on the individual's total cholesterol, LDL-cholesterol, HDL-cholesterol, triglyceride levels, hemoglobin A1C, fasting postprandial blood glucose, and weight.
During the 3-day lead-in period, patients self-administered exenatide 5 μg SC, BID, within 15 minutes prior to meals in the morning and evening. The exenatide 5 μg SC, BID used in the 3-day lead-in period was a clear, colorless, sterile preserved solution for SC injection containing exenatide (exendin-4) in sodium acetate buffer, pH 4.5, 4.3% mannitol as an iso-osmolality modifier and 0.22% metacresol as a preservative. The strength of exenatide injection was 0.25 mg/mL of exendin-4.
During the 30-week treatment period, patients received once weekly subcutaneous injections of a 2.0 mg dose pharmaceutical formulation containing 5% exenatide or patient received twice daily subcutaneous injections of exenatide at 10 μg per dose.
as §2, §3

blood glucose = assay: Fasting postprandial blood glucose, 30 week study in patients with Type 2 diabetes; conditions: decrease from baseline to week 30; SC; once weekly 2 mg or twice daily 10 μg
Method: as §4
During the 3-day lead-in period, patients self-administered exenatide 5 μg SC, BID, within 15 minutes prior to meals in the morning and evening. […]
as §2

[3] = decrease from baseline to week 30, once weekly 2 mg or twice daily 10 μg

## exenatide BID: 10 μg formulation of exenatide (exendin-4) administered twice daily by subcutaneous injection
[1]
  body weight decreased by an average of (weight loss): about 3.6 kg
[1]; listed as exenatide twice daily
  body weight decreased by an average of (weight loss): 3.6 kg
Hemoglobin A1C
  HbA1C decreased by an average of: 1.5%
Fasting triglycerides
  fasting triglycerides decreased by an average of: 22 mg/dL
[2]; [3]
  HDL-cholesterol decreased by an average of: 1.3 mg/dL
  total cholesterol decreased by an average of: 3.8 mg/dL
[2]; increase from baseline to week 30, twice daily 10 μg
  LDL-cholesterol increased by an average of: 1.2 mg/dL
Blood glucose
  fasting postprandial blood glucose decreased by an average of: 25 mg/dL
